According to ChEMBL document CHEMBL1153550, “In vitro study of Candida tropicalis isolates exhibiting paradoxical growth in the presence of high concentrations of caspofungin” (2007):
Values after ≈ are worked out from the molar mass of the structure shown. Active and inactive are the calls of the source. The calls are words filed in the database; no cut-off is given here.

Assays:
Candida tropicalis [1] = assay: Antifungal activity against 10^5 CFU/ml Candida tropicalis isolate 3 in RPMI 1640 medium at 12.5 ug/ml treated for 24 hrs followed by incubation in drug free medium for 48 hrs by broth microdilution method; format: functional, organism-based
Candida tropicalis [2] = assay: Antifungal activity against 2 x 10^7 CFU/ml Candida tropicalis isolate 6 in RPMI 1640 medium after 24 hrs by broth microdilution method; format: functional; settings: isolate 6, 24 h
Candida tropicalis [3] = assay: Antifungal activity Candida tropicalis ATCC 750 in RPMI 1640 medium at 0.19 to 6.25 ug/ml after 24 hrs by time-kill assay; format: functional, organism-based
Candida tropicalis [4] = assay: Antifungal activity against 10^5 CFU/ml Candida tropicalis isolate 4 in RPMI 1640 medium at 12.5 ug/ml treated for 48 hrs followed by incubation in drug free medium for 48 hrs by broth microdilution method; format: functional, organism-based
Candida tropicalis [5] = assay: Antifungal activity against 2 x 10^7 CFU/ml Candida tropicalis isolate 12 in antibiotic medium 3 after 24 hrs by broth microdilution method; format: functional; settings: isolate 12, 24 h
Candida tropicalis [6] = assay: Antifungal activity against 2 x 10^7 CFU/ml Candida tropicalis isolate 4 in RPMI 1640 medium after 24 hrs by broth microdilution method; format: functional; settings: isolate 4, 24 h
Candida tropicalis [7] = assay: Antifungal activity against 2 x 10^7 CFU/ml Candida tropicalis isolate 10 in antibiotic medium 3 after 24 hrs by broth microdilution method; format: functional; settings: isolate 10, 24 h
Candida tropicalis [8] = assay: Antifungal activity against 10^5 CFU/ml Candida tropicalis isolate 8 in RPMI 1640 medium at =< 0.09 ug/ml after 24 hrs followed by incubation in drug free medium for 48 hrs by broth microdilution method; format: functional, organism-based
Candida tropicalis [9] = assay: Antifungal activity against Candida tropicalis ATCC 750 in RPMI 1640 medium assessed as paradoxical growth at 6.25 ug/ml after 48 hrs by broth microdilution method; format: functional, organism-based
Candida tropicalis [10] = assay: Antifungal activity against > 2 x 10^7 CFU/ml Candida tropicalis isolate 6 in antibiotic medium 3 assessed as partial growth after 24 hrs by broth microdilution method; format: functional, organism-based
Candida tropicalis [11] = assay: Antifungal activity against 10^5 CFU/ml Candida tropicalis isolate 10 in RPMI 1640 medium at 12.5 ug/ml treated for 48 hrs followed by incubation in drug free medium for 48 hrs by broth microdilution method; format: functional, organism-based
Candida tropicalis [12] = assay: Antifungal activity against Candida tropicalis isolate 4 in RPMI 1640 medium assessed as paradoxical growth at 6.25 ug/ml after 48 hrs by broth microdilution method; format: functional, organism-based
Candida tropicalis [13] = assay: Antifungal activity Candida tropicalis ATCC 750 in RPMI 1640 medium at 12.5 ug/ml after 24 hrs by time-kill assay; format: functional, organism-based
Candida tropicalis [14] = assay: Antifungal activity against > 2 x 10^7 CFU/ml Candida tropicalis isolate 6 in antibiotic medium 3 assessed as paradoxical growth after 24 hrs by broth microdilution method; format: functional, organism-based
Candida tropicalis [15] = assay: Antifungal activity against 10^5 CFU/ml Candida tropicalis clinical isolate in RPMI 1640 medium treated for 24 hrs followed by incubation in drug free medium for 48 hrs by broth microdilution method; format: functional, organism-based
Candida tropicalis [16] = assay: Antifungal activity against 10^5 CFU/ml Candida tropicalis isolate 4 in RPMI 1640 medium at 0.4 to 12.5 ug/ml treated for 24 hrs followed by incubation in drug free medium for 48 hrs by broth microdilution method; format: functional, organism-based
Candida tropicalis [17] = assay: Antifungal activity against 2 x 10^7 CFU/ml Candida tropicalis isolate 12 in RPMI 1640 medium after 24 hrs by broth microdilution method; format: functional; settings: isolate 12, 24 h
Candida tropicalis [18] = assay: Antifungal activity against Candida tropicalis isolate 6 in RPMI 1640 medium assessed as paradoxical growth at 6.25 ug/ml after 24 hrs by broth microdilution method; format: functional, organism-based
Candida tropicalis [19] = assay: Antifungal activity against > 2 x 10^7 CFU/ml Candida tropicalis isolate 3 in antibiotic medium 3 assessed as partial growth after 24 hrs by broth microdilution method; format: functional, organism-based
Candida tropicalis [20] = assay: Antifungal activity against > 2 x 10^7 CFU/ml Candida tropicalis isolate 10 in antibiotic medium 3 assessed as partial growth after 24 hrs by broth microdilution method; format: functional, organism-based
Candida tropicalis [21] = assay: Antifungal activity against > 2 x 10^7 CFU/ml Candida tropicalis isolate 9 in antibiotic medium 3 assessed as partial growth after 24 hrs by broth microdilution method; format: functional, organism-based
Candida tropicalis [22] = assay: Antifungal activity against Candida tropicalis isolate 6 in RPMI 1640 medium assessed as paradoxical growth at 12.5 ug/ml after 48 hrs by broth microdilution method; format: functional, organism-based
Candida tropicalis [23] = assay: Antifungal activity against 2 x 10^7 CFU/ml Candida tropicalis isolate 7 in antibiotic medium 3 after 24 hrs by broth microdilution method; format: functional; settings: isolate 7, 24 h
Candida tropicalis [24] = assay: Antifungal activity against 2 x 10^7 CFU/ml Candida tropicalis isolate 4 in RPMI 1640 medium assessed as paradoxical growth at 12.5 ug/ml after 24 hrs by broth microdilution method; format: functional, organism-based
Candida tropicalis [25] = assay: Antifungal activity against Candida tropicalis isolate 15 in RPMI 1640 medium assessed as paradoxical growth at 12.5 ug/ml after 24 hrs by broth microdilution method; format: functional, organism-based
Candida tropicalis [26] = assay: Antifungal activity against Candida tropicalis isolate 5 in RPMI 1640 medium assessed as paradoxical growth at 6.25 ug/ml after 48 hrs by broth microdilution method; format: functional, organism-based
Candida tropicalis [27] = assay: Antifungal activity against > 2 x 10^7 CFU/ml Candida tropicalis isolate 7 in RPMI 1640 medium assessed as partial growth after 24 hrs by broth microdilution method; format: functional, organism-based
Candida tropicalis [28] = assay: Antifungal activity against 10^5 CFU/ml Candida tropicalis isolate 12 in RPMI 1640 medium at 12.5 ug/ml treated for 48 hrs followed by incubation in drug free medium for 48 hrs by broth microdilution method; format: functional, organism-based
Candida tropicalis [29] = assay: Antifungal activity against 10^5 CFU/ml Candida tropicalis isolate 12 in RPMI 1640 medium at 12.5 ug/ml treated for 24 hrs followed by incubation in drug free medium for 48 hrs by broth microdilution method; format: functional, organism-based
Candida tropicalis [30] = assay: Antifungal activity against 10^5 CFU/ml Candida tropicalis isolate 13 in RPMI 1640 medium at 12.5 ug/ml treated for 24 hrs followed by incubation in drug free medium for 48 hrs by broth microdilution method; format: functional, organism-based
Candida tropicalis [31] = assay: Antifungal activity against 2 x 10^7 CFU/ml Candida tropicalis isolate 13 in antibiotic medium 3 after 24 hrs by broth microdilution method; format: functional; settings: isolate 13, 24 h
Candida tropicalis [32] = assay: Antifungal activity against Candida tropicalis isolate 8 in RPMI 1640 medium assessed as paradoxical growth at 12.5 ug/ml after 24 hrs by broth microdilution method; format: functional, organism-based
Candida tropicalis [33] = assay: Antifungal activity against Candida tropicalis isolate 5 in RPMI 1640 medium assessed as paradoxical growth at 12.5 ug/ml after 48 hrs by broth microdilution method; format: functional, organism-based
Candida tropicalis [34] = assay: Antifungal activity against 10^5 CFU/ml Candida tropicalis isolate 8 in RPMI 1640 medium at 12.5 ug/ml treated for 48 hrs followed by incubation in drug free medium for 48 hrs by broth microdilution method; format: functional, organism-based
Candida tropicalis [35] = assay: Antifungal activity against Candida tropicalis isolate 6 in RPMI 1640 medium assessed as paradoxical growth at 12.5 ug/ml after 24 hrs by broth microdilution method; format: functional, organism-based
Candida tropicalis [36] = assay: Antifungal activity Candida tropicalis isolate 4 in RPMI 1640 medium at 0.19 to 6.25 ug/ml after 24 hrs by time-kill assay; format: functional, organism-based

MIC (Candida tropicalis [2]): 0.024 mg/L (≈ 0.022 µM) | MIC (Candida tropicalis [5]): 0.024 mg/L (≈ 0.022 µM) | MIC (Candida tropicalis [6]): 0.024 mg/L (≈ 0.022 µM) | MIC (Candida tropicalis [7]): 0.024 mg/L (≈ 0.022 µM) | MIC (Candida tropicalis [17]): 0.024 mg/L (≈ 0.022 µM) | MIC (Candida tropicalis [23]): 0.024 mg/L (≈ 0.022 µM) | MIC (Candida tropicalis [31]): 0.024 mg/L (≈ 0.022 µM)
Compound: CC[C@H](C)C[C@H](C)CCCCCCCCC(=O)N[C@H]1C[C@@H](O)[C@@H](NCCN)NC(=O)[C@@H]2[C@@H](O)CCN2C(=O)[C@H]([C@H](O)CCN)NC(=O)[C@H]([C@H](O)[C@@H](O)c2ccc(O)cc2)NC(=O)[C@@H]2C[C@@H](O)CN2C(=O)[C@H]([C@@H](C)O)NC1=O [CASPOFUNGIN]
Activity (Candida tropicalis [1]): inactive | Activity (Candida tropicalis [3]): Active | Activity (Candida tropicalis [4]): inactive | Activity (Candida tropicalis [8]): Active | Activity (Candida tropicalis [9]): Active | Activity (Candida tropicalis [10]): inactive | Activity (Candida tropicalis [11]): inactive | Activity (Candida tropicalis [12]): inactive | Activity (Candida tropicalis [13]): inactive | Activity (Candida tropicalis [14]): inactive | Activity (Candida tropicalis [15]): Active | Activity (Candida tropicalis [16]): inactive | Activity (Candida tropicalis [18]): inactive | Activity (Candida tropicalis [19]): inactive | Activity (Candida tropicalis [20]): inactive | Activity (Candida tropicalis [21]): inactive | Activity (Candida tropicalis [22]): inactive | Activity (Candida tropicalis [24]): inactive | Activity (Candida tropicalis [25]): inactive | Activity (Candida tropicalis [26]): inactive | Activity (Candida tropicalis [27]): inactive | Activity (Candida tropicalis [28]): inactive | Activity (Candida tropicalis [29]): inactive | Activity (Candida tropicalis [30]): inactive | Activity (Candida tropicalis [32]): inactive | Activity (Candida tropicalis [33]): inactive | Activity (Candida tropicalis [34]): inactive | Activity (Candida tropicalis [35]): inactive | Activity (Candida tropicalis [36]): Active
